This note sets out measurements from patent US11497737B2, “Pharmaceutical compositions of albumin and rapamycin” (Abraxis BioScience, LLC, priority 2019, dated 2022).

Series [1] is described as follows: Solubility of rapamycin in reconstituted suspension by light scattering. The format is physicochemical. To be noted: saline or isotonic; reconstituted suspension of the pharmaceutical composition in 0.9% saline; mean±95% CI. The protocol: The change in intensity of light scattering in diluted samples of the reconstituted suspension of the pharmaceutical composition was used as a measure to determine the in vitro dissolution or disintegration of the nanoparticles, which implicates the release of rapamycin from the nanoparticles of the pharmaceutical composition. The percent of rapamycin released at any given time was determined using the light scattering intensity at zero time and at time t. The intensity of light scattering, measured by the Malvern Zetasizer Nano, is relative to the number of nanoparticles present in the pharmaceutical composition. […] If the release of rapamycin from the nanoparticles is controlled by the solubility limit and the reconstituted suspension is diluted to a concentration within the solubility range, then the nanoparticles should rapidly dissolve, causing the rapamycin to be readily released from the nanoparticles of the pharmaceutical composition, and the light scattering intensity will approach zero.
When the suspensions were diluted to concentrations above the rapamycin solubility, the nanoparticles only partially disintegrated and dissolved, and light scattering was observed. […] The solubility of rapamycin was determined as the concentration at which the intensity of the scattered light begins to increase linearly.

The nature of series [2]: Rapamycin solubility from light scattering intensity of diluted reconstituted nanoparticle suspension. The format is physicochemical. To be noted: saline or isotonic; in 0.9% saline solution; from light scattering intensity vs rapamycin concentration of reconstituted albumin-rapamycin nanoparticle suspension; read-out: solubility point of rapamycin. The procedure: FIG. 5 depicts light scattering intensity (kcps) as a function of rapamycin concentration from a reconstituted suspension of the pharmaceutical composition comprising nanoparticles comprising rapamycin and albumin. When the suspensions were diluted to concentrations below the rapamycin solubility, the nanoparticles completely disintegrated and dissolved (see left 7-8 data points on graph). However, when the suspensions were diluted to concentrations above the rapamycin solubility, the nanoparticles only partially disintegrated and dissolved, and light scattering was observed (see right 4-5 data points on graph).
The albumin-based rapamycin nanoparticle compositions described herein in some embodiments have a particular in vitro release kinetic behavior. […] In this assay, the particle size and intensity of light scattered by the particles are measured by DLS over time following a reduction in particle concentration. In some embodiments, the release kinetics are determined by diluting the pharmaceutical composition in a 0.9% saline solution. In some embodiments, the release kinetics are determined by diluting the pharmaceutical composition in a 5% human albumin solution.
In some embodiments, the in vitro release is determined using the dynamic light scattering method. […] In some embodiments, the intensity of light scattered is measured at a scattering angle of 173°.

For orientation: solubility means the dissolved amount per volume that the medium holds.

Converted amounts (≈) assume the structure as drawn.

With `CO[C@H]1C[C@@H]2CC[C@@H](C)[C@@](O)(O2)C(=O)C(=O)N2CCCC[C@H]2C(=O)O[C@H]([C@H](C)C[C@@H]2CC[C@@H](O)[C@H](OC)C2)CC(=O)[C@H](C)/C=C(\C)[C@@H](O)[C@@H](OC)C(=O)[C@H](C)C[C@H](C)/C=C/C=C/C=C/1C` [rapamycin], the solubility in series [1] and in series [2] was 16.1 ± 1.8 µg/mL (≈ 17.6 µM) throughout.
